Drawing on PubChem BioAssay AID742 (SRMLSC, 2007), this text covers Her2 inhibition, EC50 and IC50 for 34 compounds.

Activity calls are given as the source filed them. No rule for the calls is given here.

The nature of assay [1]: inhibitors of Her2 kinase expression, dose response, cell-based, AlphaScreen, CellTiter-Glo viability (AID 742). The note with it: human cells, Her2 expression AlphaScreen; CTG viability; at 9.62 µM (top of the series).
The test system of assay [2] is human cells, Her2 expression AlphaScreen; CTG viability. The description is as above. The note with it: for EC50: viability, CellTiter-Glo.

Take `CCCS(=O)(=O)N1CCC(C(=O)N2CCC(Cc3ccccc3)CC2)CC1`: in assay [1], the Her2 inhibition was -12.4% (inactive). In assay [2], this compound returned an EC50 of over 9.62 µM.

For the compound `COC(=O)CSc1cc(SCC(=O)OC)c(C#N)c(SCC(=O)OC)c1`, the Her2 inhibition in assay [1] was 6.74% (inactive). The compound further showed an EC50 in assay [2] of over 9.62 µM.

As to `Oc1ccc(N=Cc2ccc(-c3cccs3)s2)cc1`, in assay [1], the Her2 inhibition was 37.6% (inactive). The compound further came in with an EC50 in assay [2] of under 0.024 µM.

Regarding `O=C1CC(Sc2nnc(-c3ccccc3O)o2)C(=O)N1c1ccccc1` (stereo not drawn), the Her2 inhibition in assay [1] was -8.42% (inactive). In assay [2], this compound yielded an EC50 of over 9.62 µM.

Regarding `Cc1cc(-n2c(C)cc(C(=O)CSc3nnnn3-c3ccc(Cl)cc3)c2C)no1`, the Her2 inhibition in assay [1] was -6.46% (inactive). In assay [2], this compound yielded an EC50 of over 9.62 µM.

Take `Cc1ccc(S(=O)(=O)N2CCC(C(=O)N[C@@H](C)C(=O)NCCc3ccccc3)CC2)cc1`: the Her2 inhibition in assay [1] is -5.1% (inactive). For the same compound, the half-maximal effective concentration (EC50) in assay [2] is over 9.62 µM.

For the compound `O=C(CN1CCC(c2nc3ccccc3s2)CC1)NCc1cccs1`, the Her2 inhibition in assay [1] is -41.9% (inactive). The compound also yielded an EC50 in assay [2] of over 9.62 µM.

Regarding `c1ccc(Cc2nn3c(COc4ccccc4)nnc3s2)cc1`, the Her2 inhibition in assay [1] is -17.6% (inactive). The same compound registered an EC50 in assay [2] of over 9.62 µM.

`COc1ccc2sc(NC(=O)CC(C)C)nc2c1`: the Her2 inhibition in assay [1] is 2.84% (inactive). In assay [2], this compound had an EC50 of over 9.62 µM.

Consider `CCn1nc(-c2ccccc2)nc2c(=O)n(C)c(=O)nc1-2`, for which, in assay [2], the IC50 was 4.48 µM (inactive) and the EC50 is under 0.024 µM.

Consider `CCOC(=O)CC(N)c1ccc2c(c1)OCO2` (stereo not drawn), for which the Her2 inhibition in assay [1] was -8.02% (inactive). This compound also had a concentration for a half-maximal effect (EC50) in assay [2] of over 9.62 µM.

On to `Cn1nnnc1Sc1ncnc2scc(-c3ccccc3)c12`, for which, in assay [1], the Her2 inhibition was 41.9% (inactive). In addition, the EC50 in assay [2] was over 9.62 µM.

Take `O=C(NCc1cccs1)c1nc2c(nnn2Cc2ccccc2Cl)c(=O)[nH]1`: in assay [1], the Her2 inhibition was 45.2% (inactive). In assay [2], this compound yielded an EC50 of over 9.62 µM.

`C=CCSC1=N/C(=C\C=C\c2ccco2)C(=O)S1`: the Her2 inhibition in assay [1] was 28.4% (inactive). The compound further yielded an EC50 in assay [2] of over 9.62 µM.

In the case of `C=CCn1c(=O)c2ccccc2n2c(SCc3cc(=O)n4ccsc4n3)nnc12`, in assay [1], the Her2 inhibition is -18.6% (inactive). Moreover, the EC50 in assay [2] was over 9.62 µM.

As to `Cc1c(NC(=O)c2coc(=O)c(Br)c2)c(=O)n(-c2ccccc2)n1C`, in assay [1], the Her2 inhibition was 7.39% (inactive). The compound further yielded an EC50 in assay [2] of over 9.62 µM.

As for `COc1ccccc1-c1cc(C(F)(F)F)nc(S(=O)(=O)CCCC(=O)N2CCCCC2C)n1` (stereo not drawn), the Her2 inhibition in assay [1] is -11.6% (inactive). In assay [2], the EC50 is over 9.62 µM.

`COc1ccccc1-n1c(SCC(=O)NC(C)(C)C)nc(O)cc1=O`: the Her2 inhibition in assay [1] is 8.19% (inactive). Also, in assay [2], the EC50 was over 9.62 µM.

As to `O=C1c2cccc3cccc(c23)C(=O)N1c1nncs1`, the Her2 inhibition in assay [1] is -25.5% (inactive). In addition, in assay [2], the 50% effective concentration (EC50) was over 9.62 µM.

With `Nc1c(S(=O)(=O)c2cccc(Cl)c2)c2nc3ccccc3nc2n1/N=C/c1ccc(O)c(O)c1`, the Her2 inhibition in assay [1] was 11.2% (inactive). In addition, the EC50 in assay [2] was over 9.62 µM.

On to `CCn1c(=N)n(CC(=O)C23CC4CC(CC(C4)C2)C3)c2ccccc21`, for which, in assay [1], the Her2 inhibition was -15.5% (inactive). Further, the EC50 in assay [2] was over 9.62 µM.

`COC(=O)CS(=O)(=O)c1nnc([C@H](Cc2ccccc2)NC(=O)OC(C)(C)C)o1`: in assay [1], the Her2 inhibition was -2.38% (inactive). In assay [2], this compound returned an EC50 of over 9.62 µM.

Consider `COc1ccc(-c2nnc(SC(=O)N3c4ccccc4Sc4ccccc43)o2)cc1`, for which the Her2 inhibition in assay [1] is -24.1% (inactive). For the same compound, the 50% effective concentration (EC50) in assay [2] was over 9.62 µM.

For the compound `O=C1C2ON(c3ccccc3)C(c3cccnc3)C2C(=O)N1c1ccc(Cl)c(Cl)c1` (stereo not drawn), the Her2 inhibition in assay [1] was -16.1% (inactive). For the same compound, the EC50 in assay [2] was over 9.62 µM.

Consider `CC(C)(C)c1cc(C(c2cccnc2)N2CCN(CCO)CC2)cc(C(C)(C)C)c1O` (stereo not drawn), for which the Her2 inhibition in assay [1] was 7.24% (inactive). In assay [2], this compound came in with an EC50 of over 9.62 µM.

Consider `O=c1cccc(-c2ccccc2)[nH]1`, for which, in assay [1], the Her2 inhibition was -24.1% (inactive). Further, the EC50 in assay [2] is over 9.62 µM.

`CCc1ccc(C2CC(=O)N3CN(c4ccccc4)CSC3=C2C#N)cc1` (stereo not drawn): the Her2 inhibition in assay [1] is 21.4% (inactive). For the same compound, the EC50 in assay [2] is over 9.62 µM.

As for `COC(=O)/C=C/S(=O)(=O)c1ccc(NC(C)=O)cc1`, the Her2 inhibition in assay [1] was 20.9% (inactive). The same compound returned an EC50 in assay [2] of over 9.62 µM.

For the compound `c1ccc(CNC2=NCCC2)nc1`, the Her2 inhibition in assay [1] was -3.59% (inactive). Moreover, in assay [2], the EC50 was over 9.62 µM.

Consider `Cc1[nH]nc2c1C(C1CC=CCC1)C(C#N)=C(N)O2` (stereo not drawn), for which, in assay [1], the Her2 inhibition is -29.3% (inactive). In assay [2], this compound had an EC50 of over 9.62 µM.

With `CCC(=O)OC1(C#CCOc2ccc(OC)cc2)CCN(C)CC1`, the Her2 inhibition in assay [1] is -12.2% (inactive). This compound came in with an EC50 in assay [2] of over 9.62 µM.

For the compound `O=C1C(C2=C(O)c3ccccc3C2=O)=Nc2ccccc21`, the Her2 inhibition in assay [1] is -1.36% (inactive). This compound displayed an EC50 in assay [2] of under 0.024 µM.

Consider `O=C(O)c1ccc2c3c(ncnc13)-c1ccccc1C2=O`, for which the Her2 inhibition in assay [1] is -3.54% (inactive). In assay [2], this compound gave an EC50 of over 9.62 µM.

As to `Cc1c(C#N)c(N)c(C(=O)c2ccccc2)n1Cc1ccccc1`, in assay [1], the Her2 inhibition is -0.29% (inactive). In assay [2], this compound came in with an EC50 of over 9.62 µM.
